Laboratory results reported in patent US20240270760A1, “GLYCERIC ACID, GLYCERATE, AND COMPOSITION THEREOF” (INNER MONGOLIA KINGDOMWAY PHARMACEUTICAL CO., LTD., priority 2023, published 2024).

Columns and labels:
[1] = system: Alcohol metabolism; assay: Alcohol metabolism test: ethanol content in venous blood after composition and ethanol feeding; format: in vivo, mice; conditions: for Percentage decrease compared to comparative group: decrease of venous blood ethanol content versus physiological saline group (75.0 mg/100 mL); for Ethanol content: venous blood 1 hour after 2 mL of 5% edible ethanol, 2 mL composition solution (4.5 g in 15 mL physiological saline) fed 1 hour before ethanol, 7 animals per group, GC-FID
Description: The test was divided into test groups and comparative groups. Each group included 7 healthy animals (e.g., mice). The healthy animals were fed in the laboratory for 10 days to adapt to the test environment, and then fasting was maintained 12 hours before the start of the test.
4.5 g of the compositions obtained in preparation examples 10-31 and comparative examples 1-8 were respectively dissolved in 15 mL of physiological saline to prepare composition solutions. The animals in the test groups were fed with 2 mL of the composition solution respectively, and the animals in the comparative group were fed with the same dose of normal saline. 1 hour later, the animals in the test groups and the comparative groups were fed with 2 mL of 5% edible ethanol, respectively. 1 hour later, the venous blood of the animals was collected. The ethanol content in the venous blood was detected by a gas chromatography-hydrogen flame ionization detector.

[2] = Dissolution of calcium glycerate forms in water at 37±0.2° C. (FIG. 9); format: physicochemical; conditions: comparison between forms

Row | SMILES | Percentage decrease compared to comparative group [1] [%] | Ethanol content [1] [mg/100 mL] | dissolution rate [2]
1 | O=C(O)[C@H](O)CO [compound 1, D-glyceric acid] | 14.8 | 63.9 | 
2 | O=C([O][Ca][O]C(=O)[C@H](O)CO)[C@H](O)CO [crystalline Form II, calcium D-glycerate] |  |  | faster than that of crystalline Form I
3 | O=C(O)[C@H](O)CO [compound 5, D-glyceric acid] | 15.2 | 63.6 | 
